Measurements published in publication PMC10504751, “Chalcone/1,3,4-Oxadiazole/Benzimidazole hybrids as novel anti-proliferative agents inducing apoptosis and inhibiting EGFR & BRAFV^600E” (BMC Chemistry, 2023).
Where two headings read alike, the source gives them in different places.

Experiments:
Assay in all cases: NCI one-dose SRB anti-proliferative screen
Assay type in all cases: cell-based
UACC-62 = details: Homo sapiens, read-out: Cell growth inhibition %
Outline: (§1)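 Single 10 µM dose tested by NCI in its 60-cell-line panel covering nine tumour subpanels. Anti-proliferative activity was read by Sulforhodamine B colorimetric staining.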

EKVX = details: Homo sapiens, read-out: Cell growth inhibition %
Outline: as §1

UACC-257 = details: Homo sapiens, read-out: Cell growth inhibition %
Outline: as §1

SF-268 = details: Homo sapiens, read-out: Cell growth inhibition %
Outline: as §1

MDA-MB-468 = details: Homo sapiens, read-out: Cell growth inhibition %
Outline: as §1

OVCAR-4 = details: Homo sapiens, read-out: Cell growth inhibition %
Outline: as §1

NCI-H226 = details: Homo sapiens, read-out: Cell growth inhibition %
Outline: as §1

NCI-H322M = details: Homo sapiens, read-out: Cell growth inhibition %
Outline: as §1

ACHN = details: Homo sapiens, read-out: Cell growth inhibition %
Outline: as §1

U251 = details: Homo sapiens, U-251, read-out: Cell growth inhibition %
Outline: as §1

MCF7 = details: Homo sapiens, read-out: Cell growth inhibition %
Outline: as §1

KM12 = details: Homo sapiens, read-out: Cell growth inhibition %
Outline: as §1

CCRF-CEM = details: Homo sapiens, read-out: Cell growth inhibition %
Outline: as §1

HCT-15 = details: Homo sapiens, read-out: Cell growth inhibition %
Outline: as §1

A549/ATCC = details: Homo sapiens, read-out: Cell growth inhibition %
Outline: as §1

HS 578T = details: Homo sapiens, read-out: Cell growth inhibition %
Outline: as §1

HCC-2998 = details: Homo sapiens, read-out: Cell growth inhibition %
Outline: as §1

OVCAR-5 = details: Homo sapiens, read-out: Cell growth inhibition %
Outline: as §1

IGROV1 = details: Homo sapiens, IGROV-1, read-out: Cell growth inhibition %
Outline: as §1

SW-620 = details: Homo sapiens, read-out: Cell growth inhibition %
Outline: as §1

DU-145 = details: Homo sapiens, read-out: Cell growth inhibition %
Outline: as §1

SF-539 = details: Homo sapiens, read-out: Cell growth inhibition %
Outline: as §1

NCI-H23 = details: Homo sapiens, read-out: Cell growth inhibition %
Outline: as §1

OVCAR-8 = details: Homo sapiens, read-out: Cell growth inhibition %
Outline: as §1

TK-10 = details: Homo sapiens, read-out: Cell growth inhibition %
Outline: as §1

OVCAR-3 = details: Homo sapiens, read-out: Cell growth inhibition %
Outline: as §1

A498 = details: Homo sapiens, read-out: Cell growth inhibition %
Outline: as §1

NCI-H522 = details: Homo sapiens, read-out: Cell growth inhibition %
Outline: as §1

LOX IMVI = details: Homo sapiens; for inhibition at 10 µM: read-out: Cell growth inhibition %
Outline: as §1

786-0 = details: Homo sapiens, read-out: Cell growth inhibition %
Outline: as §1

HT29 = details: Homo sapiens, HT-29, read-out: Cell growth inhibition %
Outline: as §1

[1] = UACC-62 (Melanoma), NCI one dose 10 µM
[2] = EKVX (Non-Small Cell Lung Cancer), NCI one dose 10 µM
[3] = UACC-257 (Melanoma), NCI one dose 10 µM
[4] = SF-268 (CNS Cancer), NCI one dose 10 µM
[5] = MDA-MB-468 (Breast Cancer), NCI one dose 10 µM
[6] = OVCAR-4 (Ovarian Cancer), NCI one dose 10 µM
[7] = NCI-H226 (Non-Small Cell Lung Cancer), NCI one dose 10 µM
[8] = NCI-H322M (Non-Small Cell Lung Cancer), NCI one dose 10 µM
[9] = ACHN (Renal Cancer), NCI one dose 10 µM
[10] = U251 (CNS Cancer), NCI one dose 10 µM
[11] = MCF7 (Breast Cancer), NCI one dose 10 µM
[12] = KM12 (Colon Cancer), NCI one dose 10 µM
[13] = CCRF-CEM (Leukemia), NCI one dose 10 µM
[14] = HCT-15 (Colon Cancer), NCI one dose 10 µM
[15] = A549/ATCC (Non-Small Cell Lung Cancer), NCI one dose 10 µM
[16] = HS 578T (Breast Cancer), NCI one dose 10 µM
[17] = HCC-2998 (Colon Cancer), NCI one dose 10 µM
[18] = OVCAR-5 (Ovarian Cancer), NCI one dose 10 µM
[19] = IGROV1 (Ovarian Cancer), NCI one dose 10 µM
[20] = SW-620 (Colon Cancer), NCI one dose 10 µM
[21] = DU-145 (Prostate Cancer), NCI one dose 10 µM
[22] = SF-539 (CNS Cancer), NCI one dose 10 µM
[23] = NCI-H23 (Non-Small Cell Lung Cancer), NCI one dose 10 µM
[24] = OVCAR-8 (Ovarian Cancer), NCI one dose 10 µM
[25] = TK-10 (Renal Cancer), NCI one dose 10 µM
[26] = OVCAR-3 (Ovarian Cancer), NCI one dose 10 µM
[27] = A498 (Renal Cancer), NCI one dose 10 µM
[28] = NCI-H522 (Non-Small Cell Lung Cancer), NCI one dose 10 µM
[29] = LOX IMIV (Melanoma), NCI one dose 10 µM
[30] = 786-0 (Renal Cancer), NCI one dose 10 µM
[31] = HT29 (Colon Cancer), NCI one dose 10 µM

COc1ccc(-c2nc3cc(-c4nnc(SCC(=O)Nc5ccc(C(=O)/C=C/c6cc(OC)c(OC)c(OC)c6)cc5)o4)ccc3[nH]2)cc1 [Compound 7o, 2-{5-[2-(4-Methoxyphenyl)-1 H-benzo[d]imidazol-5-yl]-1,3,4-oxadiazol-2-ylthio}-N-{4-[(E)-3-(3,4,5-trimethoxyphenyl)acryloyl]phenyl}acetamide] gave an inhibition at 10 µM (UACC-62; UACC-62, Melanoma, NCI one dose) of 5.12%, an inhibition at 10 µM (EKVX; EKVX, Non-Small Cell Lung Cancer, NCI one dose) of 0% and an inhibition at 10 µM (UACC-257; UACC-257, Melanoma, NCI one dose) of 0%. For the same compound, the inhibition at 10 µM (SF-268; SF-268, CNS Cancer, NCI one dose) was 0%, the inhibition at 10 µM (MDA-MB-468; MDA-MB-468, Breast cancer, NCI one dose) was 0% and the inhibition at 10 µM (OVCAR-4; OVCAR-4, Ovarian Cancer, NCI one dose) was 0%. The inhibition at 10 µM (NCI-H226; NCI-H226, Non-Small Cell Lung Cancer, NCI one dose) was 2.19%, the inhibition at 10 µM (NCI-H322M; NCI-H322M, Non-Small Cell Lung Cancer, NCI one dose) was 0% and the inhibition at 10 µM (ACHN; ACHN, Renal cancer, NCI one dose) was 0%. For the same compound, the inhibition at 10 µM (U251; U251, CNS Cancer, NCI one dose) was 3.23%, the inhibition at 10 µM (MCF7; MCF7, Breast cancer, NCI one dose) was 18.4% and the inhibition at 10 µM (KM12; KM12, Colon cancer, NCI one dose) was 0%. The inhibition at 10 µM (CCRF-CEM; CCRF-CEM, Leukemia, NCI one dose) was 0%, the inhibition at 10 µM (HCT-15; HCT-15, Colon cancer, NCI one dose) was 0% and the inhibition at 10 µM (A549/ATCC; A549/ATCC, Non-Small Cell Lung Cancer, NCI one dose) was 0%. The inhibition at 10 µM (HS 578T; HS 578T, Breast cancer, NCI one dose) was 0%, the inhibition at 10 µM (HCC-2998; HCC-2998, Colon cancer, NCI one dose) was 0% and the inhibition at 10 µM (OVCAR-5; OVCAR-5, Ovarian Cancer, NCI one dose) was 0%. It also gave an inhibition at 10 µM (IGROV1; IGROV1, Ovarian Cancer, NCI one dose) of 0%, an inhibition at 10 µM (SW-620; SW-620, Colon cancer, NCI one dose) of 0% and an inhibition at 10 µM (DU-145; DU-145, Prostate Cancer, NCI one dose) of 0%. It also gave an inhibition at 10 µM (SF-539; SF-539, CNS Cancer, NCI one dose) of 2.1%, an inhibition at 10 µM (NCI-H23; NCI-H23, Non-Small Cell Lung Cancer, NCI one dose) of 0% and an inhibition at 10 µM (OVCAR-8; OVCAR-8, Ovarian Cancer, NCI one dose) of 0%. The inhibition at 10 µM (TK-10; TK-10, Renal cancer, NCI one dose) was 0%, the inhibition at 10 µM (OVCAR-3; OVCAR-3, Ovarian Cancer, NCI one dose) was 0% and the inhibition at 10 µM (A498; A498, Renal cancer, NCI one dose) was 0%. The inhibition at 10 µM (NCI-H522; NCI-H522, Non-Small Cell Lung Cancer, NCI one dose) was 0%, the inhibition at 10 µM (LOX IMVI; Melanoma, NCI one dose) was 22.9% and the inhibition at 10 µM (786-0; 786-0, Renal cancer, NCI one dose) was 0%. It also gave an inhibition at 10 µM (HT29; HT29, Colon cancer, NCI one dose) of 0%.
With O=C(CSc1nnc(-c2ccc3[nH]c(-c4ccc(Cl)cc4)nc3c2)o1)Nc1ccc(C(=O)/C=C/c2ccccc2)cc1 [Compound 7f, 2-{5-[2-(4-Chlorophenyl)-1 H-benzo[d]imidazol-5-yl]-1,3,4-oxadiazol-2-ylthio}-N-{4-[(E)-3-phenylacryloyl]phenyl}acetamide] the inhibition at 10 µM (UACC-62; [1]) was 5.12%, the inhibition at 10 µM (EKVX; [2]) was 0% and the inhibition at 10 µM (UACC-257; [3]) was 0%. It also gave an inhibition at 10 µM (SF-268; [4]) of 0%, an inhibition at 10 µM (MDA-MB-468; [5]) of 0% and an inhibition at 10 µM (OVCAR-4; [6]) of 0%. It also gave an inhibition at 10 µM (NCI-H226; [7]) of 2.19%, an inhibition at 10 µM (NCI-H322M; [8]) of 0% and an inhibition at 10 µM (ACHN; [9]) of 0%. The inhibition at 10 µM (U251; [10]) was 3.23%, the inhibition at 10 µM (MCF7; [11]) was 18.4% and the inhibition at 10 µM (KM12; [12]) was 0%. It also gave an inhibition at 10 µM (CCRF-CEM; [13]) of 0%, an inhibition at 10 µM (HCT-15; [14]) of 0% and an inhibition at 10 µM (A549/ATCC; [15]) of 0%. For the same compound, the inhibition at 10 µM (HS 578T; [16]) was 0%, the inhibition at 10 µM (HCC-2998; [17]) was 0% and the inhibition at 10 µM (OVCAR-5; [18]) was 0%. It also gave an inhibition at 10 µM (IGROV1; [19]) of 0%, an inhibition at 10 µM (SW-620; [20]) of 0% and an inhibition at 10 µM (DU-145; [21]) of 0%. For the same compound, the inhibition at 10 µM (SF-539; [22]) was 2.1%, the inhibition at 10 µM (NCI-H23; [23]) was 0% and the inhibition at 10 µM (OVCAR-8; [24]) was 0%. For the same compound, the inhibition at 10 µM (TK-10; [25]) was 0%, the inhibition at 10 µM (OVCAR-3; [26]) was 0% and the inhibition at 10 µM (A498; [27]) was 0%. The inhibition at 10 µM (NCI-H522; [28]) was 0%, the inhibition at 10 µM (LOX IMVI; [29]) was 22.9% and the inhibition at 10 µM (786-0; [30]) was 0%. The inhibition at 10 µM (HT29; [31]) was 0%.
Compound COc1ccc(/C=C/C(=O)c2ccc(NC(=O)CSc3nnc(-c4ccc5[nH]c(-c6ccc(Cl)cc6)nc5c4)o3)cc2)cc1 [Compound 7h, 2-{5-[2-(4-Chlorophenyl)-1 H-benzo[d]imidazol-5-yl]-1,3,4-oxadiazol-2-ylthio}-N-{4-[(E)-3-(4-methoxyphenyl)acryloyl]phenyl}acetamide] has an inhibition at 10 µM (UACC-62; [1]) of 16.2%, an inhibition at 10 µM (EKVX; [2]) of 0% and an inhibition at 10 µM (UACC-257; [3]) of 0%. The inhibition at 10 µM (SF-268; [4]) was 0%, the inhibition at 10 µM (MDA-MB-468; [5]) was 0% and the inhibition at 10 µM (OVCAR-4; [6]) was 0%. For the same compound, the inhibition at 10 µM (NCI-H226; [7]) was 12.4%, the inhibition at 10 µM (NCI-H322M; [8]) was 0% and the inhibition at 10 µM (ACHN; [9]) was 0%. It also gave an inhibition at 10 µM (U251; [10]) of 3.98%, an inhibition at 10 µM (MCF7; [11]) of 20.3% and an inhibition at 10 µM (KM12; [12]) of 0.3%. For the same compound, the inhibition at 10 µM (CCRF-CEM; [13]) was 40.1%, the inhibition at 10 µM (HCT-15; [14]) was 5.06% and the inhibition at 10 µM (A549/ATCC; [15]) was 0%. It also gave an inhibition at 10 µM (HS 578T; [16]) of 5.34%, an inhibition at 10 µM (HCC-2998; [17]) of 0% and an inhibition at 10 µM (OVCAR-5; [18]) of 0%. The inhibition at 10 µM (IGROV1; [19]) was 4.69%, the inhibition at 10 µM (SW-620; [20]) was 0% and the inhibition at 10 µM (DU-145; [21]) was 0%. For the same compound, the inhibition at 10 µM (SF-539; [22]) was 5.67%, the inhibition at 10 µM (NCI-H23; [23]) was 6% and the inhibition at 10 µM (OVCAR-8; [24]) was 20.5%. The inhibition at 10 µM (TK-10; [25]) was 0%, the inhibition at 10 µM (OVCAR-3; [26]) was 0% and the inhibition at 10 µM (A498; [27]) was 0%. For the same compound, the inhibition at 10 µM (NCI-H522; [28]) was 20.9%, the inhibition at 10 µM (LOX IMVI; [29]) was 93.2% and the activity at 10 µM (LOX IMVI; LOX IMVI (Melanoma), 10 µM one dose, read-out: Growth Percent) was -32 to 18%. For the same compound, the inhibition at 10 µM (786-0; [30]) was 0.41% and the inhibition at 10 µM (HT29; [31]) was 0%.
